Reference: patent publication US20200239530A1, “COMPOUNDS AND METHODS OF MODULATING PROTEIN DEGRADATION” (Vividion Therapeutics, Inc., priority 2017, published 2020)

Legend:
[1] = molecular target: T1, BACH1 Transcription regulator protein BACH1 (Homo sapiens, UniProt O14867); assay: Cysteine liganding, probe competition; assay type: binding; conditions: for Liganded: BACH1 Res# 224, uniprot O14867
T1 construct: Cells were resuspended in cold PBS on ice and sonicated with a probe sonicator to achieve lysis; endogenous in cells
T1 sequence (O14867 1-736): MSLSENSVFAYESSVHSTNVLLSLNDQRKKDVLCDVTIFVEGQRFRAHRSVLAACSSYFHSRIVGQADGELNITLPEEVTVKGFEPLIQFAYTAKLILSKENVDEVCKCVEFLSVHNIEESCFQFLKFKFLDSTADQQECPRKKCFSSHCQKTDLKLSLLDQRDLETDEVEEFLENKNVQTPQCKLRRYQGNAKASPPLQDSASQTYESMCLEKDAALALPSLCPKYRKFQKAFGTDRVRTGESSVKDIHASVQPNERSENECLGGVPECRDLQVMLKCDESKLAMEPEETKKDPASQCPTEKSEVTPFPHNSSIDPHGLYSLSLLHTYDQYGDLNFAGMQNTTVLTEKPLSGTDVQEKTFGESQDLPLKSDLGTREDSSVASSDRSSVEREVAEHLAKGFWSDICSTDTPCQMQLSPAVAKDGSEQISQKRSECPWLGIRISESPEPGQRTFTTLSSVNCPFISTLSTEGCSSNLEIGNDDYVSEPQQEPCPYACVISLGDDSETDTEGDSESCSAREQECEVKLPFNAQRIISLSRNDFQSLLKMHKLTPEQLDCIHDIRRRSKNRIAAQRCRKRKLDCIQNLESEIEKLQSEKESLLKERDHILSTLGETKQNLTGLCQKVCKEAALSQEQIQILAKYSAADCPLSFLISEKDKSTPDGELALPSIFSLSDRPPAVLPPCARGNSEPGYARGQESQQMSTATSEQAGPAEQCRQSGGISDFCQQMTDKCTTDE
In short: (§1)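 Probe competition in native proteome: 5 mg/ml lysate, compound 1 hr 25° C, then desthiobiotin iodoacetamide (10 mM stock) 1 hr 25° C; acetone ppt, urea/DTT reduction, iodoacetamide alkylation, trypsin, streptavidin pull-down.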

[2] = molecular target: T2, RRP1B Ribosomal RNA processing protein 1 homolog B (Homo sapiens, UniProt Q14684); assay: Cysteine liganding, probe competition; assay type: binding
T2 construct: Cells were resuspended in cold PBS on ice and sonicated with a probe sonicator to achieve lysis; endogenous in cells
T2 sequence (Q14684 1-758): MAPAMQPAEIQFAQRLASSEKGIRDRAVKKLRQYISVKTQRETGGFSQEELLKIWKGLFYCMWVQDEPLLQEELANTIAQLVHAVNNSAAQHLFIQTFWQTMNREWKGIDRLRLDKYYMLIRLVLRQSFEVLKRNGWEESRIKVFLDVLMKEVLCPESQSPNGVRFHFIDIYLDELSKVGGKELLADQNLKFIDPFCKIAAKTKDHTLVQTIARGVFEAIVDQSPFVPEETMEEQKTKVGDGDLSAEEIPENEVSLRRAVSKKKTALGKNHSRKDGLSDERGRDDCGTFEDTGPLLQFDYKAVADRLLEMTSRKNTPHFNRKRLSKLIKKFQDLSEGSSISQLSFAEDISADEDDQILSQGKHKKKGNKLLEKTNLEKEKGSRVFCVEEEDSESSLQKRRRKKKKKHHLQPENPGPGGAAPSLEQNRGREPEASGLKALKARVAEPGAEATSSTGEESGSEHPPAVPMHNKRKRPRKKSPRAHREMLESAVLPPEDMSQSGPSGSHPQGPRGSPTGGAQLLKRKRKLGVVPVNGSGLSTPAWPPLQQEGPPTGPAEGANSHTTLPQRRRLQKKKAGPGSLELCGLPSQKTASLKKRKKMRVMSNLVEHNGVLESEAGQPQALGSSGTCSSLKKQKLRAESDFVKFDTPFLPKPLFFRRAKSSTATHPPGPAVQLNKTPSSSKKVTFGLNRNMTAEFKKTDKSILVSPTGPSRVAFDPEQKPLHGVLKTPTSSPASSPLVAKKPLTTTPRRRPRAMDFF
In short: as §1

Structure (SMILES) | Liganded [1] | Liganded ([2]; RRP1B Res# 155, uniprot Q14684) | 100 Max ([1]; uniprot O14867) | 100 ave ([1]; uniprot O14867) | 500 Max ([1]; uniprot O14867) | 500 ave ([1]; uniprot O14867) | 100 Max ([2]; uniprot Q14684) | 100 ave ([2]; uniprot Q14684) | 500 Max ([2]; uniprot Q14684) | 500 ave ([2]; uniprot Q14684)
COc1ccc2c(c1)CCCN2C(=O)CCl [KB02] | YES | YES | – | – | – | – | – | – | – | –
O=C(CCl)Nc1cc(C(F)(F)F)cc(C(F)(F)F)c1 [KBO3] | YES | – | 53.8 | 53.8 | 85.3 | 85.3 | 27.08 | 18.31 | 70.79 | 66.05
